Reference: patent US20170050966A1, “INHIBITING THE TRANSIENT RECEPTOR POTENTIAL A1 ION CHANNEL” (HYDRA BIOSCIENCES, INC., priority 2014, published 2017)
≈ marks a conversion by molar mass, not a printed value. Read-outs that look alike come from different tables or passages of the source.

What was measured:
human TRPA1 (hTRPA1) = molecular target: T1, human TRPA1 (hTRPA1) (Homo sapiens, UniProt O75762); assay: Inhibition of human TRPA1, whole-cell patch clamp; format: cell-based
T1 construct: expressed in transfected cells
Method: Data for TRPA1 inhibition was obtained by this method for the indicated compounds of Formula (I), with the relevant data included in Table 14 below. All currents were recorded in whole-cell configuration using EPC-9 and EPC-10 amplifiers and Patchmaster software (HEKA). […] The standard pipette solution consisted of 140 mM CsAsp, 10 mM EGTA, 10 mM HEPES, […], 1.91 mM CaCl2, and up to 0.3 mM Na2GTP, with pH adjusted to 7.2 with CsOH. In addition, a solution containing 145 mM CsCl, 10 mM HEPES, 10 mM EGTA, and up to 0.3 mM Na2GTP and 1 mM MgCl2 (pH 7.2 adjusted with CsOH) can be used. The standard bath solution contained 150 mM NaCl, 10 mM HEPES, 10 mM glucose, 4.5 mM KCl, 1 mM EGTA, 3 mM MgCl2, with pH adjusted to 7.4 with NaOH. In some instances, 2 mM CaCl2 was added in place of EGTA and the concentration of MgCl2 was reduced to 1 mM.
Data were collected either by continuous recordings at −60 mV or by applying voltage ramps from a holding potential of 0 mV every 4 s. Continuous recordings were collected at 400 Hz and digitally filtered off-line at 10 Hz for presentation. Voltage ramps were applied from −100 mV to 100 mV over the course of 400 ms, and data were collected at 10 kHz and filtered at […]. Inward and outward currents were analyzed from the ramps at −80 and 80 mV, respectively. Liquid junction potential correction was not used.
Solutions were switched using a gravity-fed continuous focal perfusion system. To achieve rapid temperature changes, two temperature control, and perfusion systems were employed simultaneously. For temperatures greater than or equal to 22° C., a Warner Instruments bipolar temperature controller (TC-344B) and inline heater (SHM-8) were used. […] Temperatures were confirmed using a thermistor (Warner Instruments, TA-29), with temperatures at the recorded cell estimated to be within +/−2° C. of those reported.
The antagonist effects of compounds of Formula (I) against human TRPA1 (“hTRPA1”) in a whole cell patch configuration were evaluated using the in vitro assay protocol described above.

[1] = Metabolic stability in liver microsomes; format: in vitro ADME, human; conditions: 1 μM test compound; for half-life at 1 μM: human, liver microsomes, 37° C.
Method: Metabolic stability of the compounds of Formula (I) was determined by standard liver microsome assays. Briefly, metabolic stability was tested by adding the compound to be tested dissolved in DMSO to human, dog, or rat liver microsomes. Assays were run with a starting concentration of 1 μM test compound. The reaction was initiated by addition of nicotinamide adenine dinucleotide phosphate[…] (NADPH) regeneration components at 37° C., at which time an aliquot was immediately quenched in an ice-cold acetonitrile/methanol/water solution. Reaction mixture was incubated at 37° C. on a shaker, and additional aliquots were taken at 7, 15, 30 and 60 minutes. Following quench and centrifugation, samples were analyzed on HPLC/MS/MS.

[2] = Solubility in Normal Ringer Solution; format: physicochemical; conditions: aqueous buffer, kinetic from dmso stock, pH 7.4, room temperature
Method: Compounds of the invention were also tested for solubility in Normal Ringer Solution. […] Following vortex and incubation for 40 minutes at room temperature, solutions were filtered, quenched with acetonitrile, and analyzed by liquid chromatography. Solubility limits were determined by comparison to a standard curve. […] Solubility is reported as “greater than” if the observed increase between the last 2 dilutions tested is greater than 2-fold.

[3] = Oral bioavailability of solutions in non-fasted rats; conditions: rat, in vivo, oral solution, read-out: Rat % F
Method: Early bioavailability studies in rat were conducted with solutions of the compounds of the invention. Compounds were delivered via oral administration as a solution in an appropriate excipient. Example formulations include, but are not limited to: 4% DMSO, 10% Solutol HS-15, and 86% water or 4% DMSO, 5% Tween, 25% Cremophor EL. Target concentrations were typically 1 mg/mL, and administered via oral gavage to non-fasted rats. The absolute bioavailability is the dose-corrected area under the curve (AUC) non-intravenous divided by the dose corrected AUC intravenous. The formula for calculating F for a drug administered by the oral route (PO) is given below:
% F=AUC PO×Dose IV/AUC IV×Dose PO

[4] = tested on: formalin model in the rat; assay: Formalin-induced pain test; format: in vivo
Method: Compound 2 was tested in the formalin-induced pain test reported by Dubuisson et al., Pain (1977) December; 4(2):161-74. Dubuisson et al describe a method for assessing pain and analgesia in rats and cats. Briefly, dilute formalin (50 μL of 3% formalin) is injected into the plantar surface of the hind paw of a rat. […] The initial phase (Phase I: 0-5 min) is thought to have a significant component that is dependent upon direct activation of afferent fibers by formalin and functional TRPA1 (McNamara et al., 2007). The individual responsible for counting the pain behaviors in a particular study is blinded to the treatment groups.
Investigators studied oral administration of Compound 2 at 1, 3 and 10 mg/kg on pain behaviors in the formalin model in the rat. Compound 2 was prepared as solutions in 4% DMSO, 10% Solutol HS15, 86% WFI. Animals were dosed orally with Vehicle (4% DMSO, 10% Solutol, 86% WFI), or Compound 2 at 1, 3 or 10 mg/kg one hour prior to intraplantar formalin. […] (n=8 per group) (*=p<0.05, **=p<0.01, *** p<0.001: 1-tailed T-test)
A reduction in the duration of pain behaviors was also observed with Compound 4 from 0-5 minutes post-formalin administration. Using the methods described above for the formalin assay, Compound 4 was formulated as a solution in 4% DMSO; 5% Tween-80; 20% Cremophor EL; and 71% WFI and administered by oral gavage to rats.
Using the methods described above for the formalin assay, Compound 4 was formulated as a suspension in 0.5% methylcellulose and administered by oral gavage to rats.
The persistence of the response was also studied. Compound 2 was prepared as a solution in 4% DMSO, 10% Solutol HS15, and 86% WFI. Rats were treated with 10 mg/kg of oral doses of Compound 2 or with the vehicle (PO).

[5] = antagonist effect, whole cell patch configuration, read-out: hTRPA1
[6] = 1 mpk PO, solution in DMSO/Tween-80/Cremophor EL/WFI
[7] = 1 mpk PO, suspension in 0.5% methylcellulose
[8] = 10 mg/kg PO, 1 Hr pre-treatment
[9] = 10 mg/kg PO, 2 Hr pre-treatment
[10] = 10 mg/kg PO, 4 Hr pre-treatment
[11] = 10 mg/kg PO, 6 Hr pre-treatment
[12] = 10 mg/kg PO, 15 Min pre-treatment
[13] = 10 mg/kg PO, 24 Hr pre-treatment
[14] = 10 mg/kg PO, 30 Min pre-treatment
[15] = 1 mpk PO, one hour prior to formalin
[16] = 3 mpk PO, one hour prior to formalin
[17] = 10 mpk PO, one hour prior to formalin

T1 sequence (O75762 whole entry): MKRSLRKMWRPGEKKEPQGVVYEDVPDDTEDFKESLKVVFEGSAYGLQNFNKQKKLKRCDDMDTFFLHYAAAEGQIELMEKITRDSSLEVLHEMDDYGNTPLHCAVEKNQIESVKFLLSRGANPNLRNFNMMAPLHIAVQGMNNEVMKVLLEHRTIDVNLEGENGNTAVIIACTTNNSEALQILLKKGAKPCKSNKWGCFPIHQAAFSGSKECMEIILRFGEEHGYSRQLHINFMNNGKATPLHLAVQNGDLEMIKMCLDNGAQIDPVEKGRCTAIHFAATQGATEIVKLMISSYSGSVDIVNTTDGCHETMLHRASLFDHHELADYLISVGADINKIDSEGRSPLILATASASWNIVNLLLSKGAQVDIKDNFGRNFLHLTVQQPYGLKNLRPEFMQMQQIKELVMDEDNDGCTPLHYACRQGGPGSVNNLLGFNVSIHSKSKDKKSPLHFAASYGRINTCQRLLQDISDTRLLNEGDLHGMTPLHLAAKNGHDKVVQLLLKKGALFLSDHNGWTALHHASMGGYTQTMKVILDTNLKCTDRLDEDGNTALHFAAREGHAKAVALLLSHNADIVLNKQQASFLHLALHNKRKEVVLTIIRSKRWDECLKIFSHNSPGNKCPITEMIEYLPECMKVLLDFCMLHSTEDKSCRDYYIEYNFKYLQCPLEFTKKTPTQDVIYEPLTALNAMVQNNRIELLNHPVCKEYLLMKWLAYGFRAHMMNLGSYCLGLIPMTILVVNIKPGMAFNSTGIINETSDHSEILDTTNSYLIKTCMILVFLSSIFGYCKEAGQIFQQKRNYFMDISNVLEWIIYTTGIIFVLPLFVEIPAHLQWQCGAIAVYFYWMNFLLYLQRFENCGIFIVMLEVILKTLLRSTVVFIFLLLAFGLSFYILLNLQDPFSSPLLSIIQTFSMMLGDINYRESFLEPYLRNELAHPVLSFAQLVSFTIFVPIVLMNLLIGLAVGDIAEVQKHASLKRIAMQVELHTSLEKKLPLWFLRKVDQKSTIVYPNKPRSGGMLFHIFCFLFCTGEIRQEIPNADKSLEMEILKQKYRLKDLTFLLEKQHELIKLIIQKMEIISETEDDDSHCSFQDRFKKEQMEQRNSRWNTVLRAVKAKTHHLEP

## C[C@@H](C(=O)Nc1ccnc(-c2cnc(N3CCC[C@@H]3C(F)(F)F)nc2)n1)n1cnc2c1c(=O)n(C)c(=O)n2C [Compound 4, (S)-2-(1,3-dimethyl-2,6-dioxo-2,3-dihydro-1H-purin-7(6H)-yl)-N-(2′-((R)-2-(trifluoromethyl)pyrrolidin-1-yl)-[2,5′-bipyrimidin]-4-yl)propanamide]
Human TRPA1 (hTRPA1); [5]
  IC50: 11.3 nM
[1]
  half-life at 1 μM: 19.8 min
[2]
  solubility at 40 min: > 31.3 µM
[3]
  bioavailability: 100%
[4]; [6]
  Duration 0-2 min: 76.13 s
  Duration 0-5 min: 197.88 s
[4]; [7]
  Duration 0-2 min: 80.38 s
  Duration 0-5 min: 186.25 s
[4]; 3 mpk PO, solution
  Duration 0-2 min: 45.25 s
  Duration 0-5 min: 175.88 s
[4]; 3 mpk PO, suspension
  Duration 0-2 min: 51.13 s
  Duration 0-5 min: 163.25 s
[4]; 10 mpk PO, solution
  Duration 0-2 min: 47.13 s
  Duration 0-5 min: 191.00 s
[4]; 10 mpk PO, suspension
  Duration 0-2 min: 38.13 s
  Duration 0-5 min: 144.25 s

## C[C@@H](C(=O)Nc1ccnc(-c2cnc(N3CCCC3(C)C)nc2)n1)n1cnc2c1c(=O)n(C)c(=O)n2C [Compound 1, (S)-2-(1,3-dimethyl-2,6-dioxo-2,3-dihydro-1H-purin-7(6H)-yl)-N-(2′-(2,2-dimethylpyrrolidin-1-yl)-[2,5′-bipyrimidin]-4-yl)propanamide]
Human TRPA1 (hTRPA1); [5]
  IC50: 5.15 nM
[1]
  Human Liver Microsomes Hepatic Clearance: 16 mL/min/kg
  half-life at 1 μM: 9 min
[2]
  solubility at 40 min: > 14.3 µM
[3]
  bioavailability: 46%
[4]; 1 mg/kg IV
  Duration 0-2 min: 35.50 s
  Duration 0-5 min: 153.25 s
[4]; 3 mg/kg IV
  Duration 0-2 min: 6.25 s
  Duration 0-5 min: 111.25 s

## C[C@@H](C(=O)Nc1ccnc(-c2cnc(N3CCC[C@H]3C(F)(F)F)nc2)n1)n1cnc2c1c(=O)n(C)c(=O)n2C [Compound 2, (S)-2-(1,3-dimethyl-2,6-dioxo-2,3-dihydro-1H-purin-7(6H)-yl)-N-(2′-((S)-2-(trifluoromethyl)pyrrolidin-1-yl)-[2,5′-bipyrimidin]-4-yl)propanamide]
Human TRPA1 (hTRPA1); [5]
  IC50: 6.87 nM
Human TRPA1 (hTRPA1); hTRPA1, 10 μM AITC, read-out: IC50 Inward current
  IC50: 6.9 ± 3.1 nM
[1]
  Human Liver Microsomes Hepatic Clearance: 8 mL/min/kg
  half-life at 1 μM: 43 min
[2]
  solubility at 40 min: ~32.4 µM (≈ 17.6 µg/mL)
[3]
  bioavailability: 100%
[4]; 1 mg/kg PO, vs vehicle, did not reach statistical significance
  reduction of pain behaviors from 0-5 minutes: ~14%
[4]; 1 mg/kg PO, vs vehicle, not statistically significant
  decrease in the duration of pain behaviors from 0-2 minutes: ~14%
[4]; 3 mg/kg PO, vs vehicle
  decrease in formalin-induced pain behaviors from 0-2 minutes: ~72%
  reduction of duration of pain behaviors from 0-5 minutes: ~46%
[4]; [8]
  Duration 0-2 min: 14.50 s
  Duration 0-5 min: 146.14 s
[4]; [9]
  Duration 0-2 min: 12.00 s
  Duration 0-5 min: 118.10 s
[4]; [10]
  Duration 0-2 min: 19.00 s
  Duration 0-5 min: 135.84 s
[4]; [11]
  Duration 0-2 min: 22.75 s
  Duration 0-5 min: 156.61 s
[4]; [12]
  Duration 0-2 min: 82.50 s
  Duration 0-5 min: 185.43 s
[4]; [13]
  Duration 0-2 min: 96.63 s
  Duration 0-5 min: 197.15 s
[4]; [14]
  Duration 0-2 min: 62.50 s
  Duration 0-5 min: 181.40 s
[4]; 10 mg/kg PO, 15 minute to 6 hour pre-treatment, vs vehicle
  decrease in the duration of formalin-induced pain behaviors 0-2 minutes: 30-87%
[4]; 10 mg/kg PO, 30 minutes to 6 hours prior to formalin injection
  duration of formalin-mediated pain behaviors: significantly decreased the duration of formalin-mediated pain behaviors
[4]; 10 mg/kg PO, vs vehicle
  decrease in formalin-induced pain behaviors from 0-2 minutes: ~89%
  reduction of duration of pain behaviors from 0-5 minutes: ~60%
[4]; [15]
  Duration 0-2 min: 73.00 s
  Duration 0-5 min: 157.38 s
[4]; [16]
  Duration 0-2 min: 23.25 s
  Duration 0-5 min: 99.00 s
[4]; [17]
  Duration 0-2 min: 9.25 s
  Duration 0-5 min: 73.50 s
